Source: US9174967B2, “Substituted pyrazole-containing compounds and their use as pesticides” (BASF SE, priority 2012, dated 2015)

What was measured:
Assay in all cases: whole plant or invertebrate
Assay type in all cases: in vivo
[1] = test system: Southern Armyworm (Spodoptera eridania); conditions: in Phaseolus lunatus, 96 h, larvae, 4 days after treatment, read-out: mortality in comparison with untreated controls
[2] = test system: Tobacco Budworm (Heliothis virescens); conditions: in Gossypium hirsutum, 96 h, larvae, 4 days after treatment, read-out: mortality in comparison with untreated controls
[3] = test system: Orchid Thrips (dichromothrips corbetti); conditions: 96 h, adult thrips, after 4 days, read-out: mortality in comparison with untreated controls
[4] = test system: Boll Weevil (Anthonomus grandis); conditions: 120 h, egg and larval mortality after 5 days, read-out: mortality in comparison with untreated controls
[5] = test system: Rice Green Leafhopper (Nephotettix virescens); conditions: adults, after 72 hours, read-out: mortality in comparison with untreated controls
[6] = test system: Vetch Aphid (Megoura viciae); conditions: foliar, 120 h, adult aphids, after 5 days, read-out: mortality in comparison with untreated controls
[7] = test system: Mediterranean Fruitfly (Ceratitis capitata); conditions: 120 h, egg and larval mortality after 5 days, read-out: mortality in comparison with untreated controls
[8] = test system: Silverleaf Whitefly (Bemisia argentifolii); conditions: 72 h, whitefly adults, 3 days after treatment, read-out: mortality in comparison with untreated controls
[9] = test system: Diamond Back Moth (plutella xylostella); conditions: in Brassica oleracea, foliar, leaf dip, 3rd instar larvae, 72 hours after treatment, read-out: mortality in comparison with untreated controls
[10] = test system: Red Spider Mite (Tetranychus kanzawai); conditions: in Vigna unguiculata, 72 hours after treatment, read-out: mortality in comparison with untreated controls
[11] = test system: Cowpea Aphid (aphis craccivora); conditions: spray, population reduction assessed after 24, 72 and 120 hours, read-out: mortality in comparison with untreated controls
[12] = test system: Rice Brown Plant Hopper (Nilaparvata lugens); conditions: adults, after 72 hours, read-out: mortality in comparison with untreated controls
[13] = test system: Green Peach Aphid (Myzus persicae); conditions: 120 h, after 5 days, read-out: mortality in comparison with untreated controls
[14] = test system: Colorado Potato Beetle (Leptinotarsa decemlineata); conditions: in Solanum melongena, foliar, 96 h, larvae, 4 days after treatment, read-out: mortality in comparison with untreated controls

CCS(CC)=Nc1c(-c2cc(Cl)c3c(c2)OCO3)c(C(F)(F)F)nn1-c1ncccn1 [I.1-1, [4-(7-Chloro-1,3-benzodioxol-5-yl)-2-pyrimidin-2-yl-5-(trifluoromethyl)pyrazol-3-yl]imino-diethyl-λ^4-sulfane]
≥ 75%: mortality at 300 ppm [1] | mortality at 2500 ppm [2] | mortality at 300 ppm [3] | mortality at 2500 ppm [4] | mortality at 300 ppm [5] | mortality at 2500 ppm [6] | mortality at 2500 ppm [7] | mortality at 500 ppm [8] | mortality at 300 ppm [9] | mortality at 300 ppm [10] | mortality at 300 ppm [11] | mortality at 500 ppm [12]

FC(F)(F)c1nn(-c2ncccn2)c(N=S2CCCC2)c1-c1cc(Cl)c2c(c1)OCO2 [I.1-3, 2-[4-(7-Chloro-1,3-benzodioxol-5-yl)-5-(thiolan-1-ylideneamino)-3-(trifluoromethyl)pyrazol-1-yl]pyrimidine]
≥ 75%: mortality at 300 ppm [1] | mortality at 2500 ppm [2] | mortality at 300 ppm [3] | mortality at 2500 ppm [4] | mortality at 300 ppm [5] | mortality at 2500 ppm [6] | mortality at 2500 ppm [7] | mortality at 500 ppm [8] | mortality at 300 ppm [9] | mortality at 300 ppm [10] | mortality at 300 ppm [11] | mortality at 500 ppm [12]

CCNC(=O)N(C(=O)NCC)c1c(-c2cc(Cl)cc(C(F)(F)F)c2)c(C(F)(F)F)nn1-c1ncccn1 [I.1-9, 1-[4-[3-chloro-5-(trifluoromethyl)phenyl]-2-pyrimidin-2-yl-5-(trifluoromethyl)pyrazol-3-yl]-3-ethyl-1-(ethylcarbamoyl)urea]
≥ 75%: mortality at 500 ppm [12]

FC(F)(F)c1cc(Cl)cc(-c2c(C(F)(F)F)nn(-c3ncccn3)c2-n2cccc2)c1 [I.1-7, 2-[4-[3-chloro-5-(trifluoromethyl)phenyl]-5-pyrrol-1-yl-3-(trifluoromethyl)pyrazol-1-yl]pyrimidine]
≥ 75%: mortality at 300 ppm [1] | mortality at 2500 ppm [2] | mortality at 300 ppm [3] | mortality at 300 ppm [5] | mortality at 500 ppm [8] | mortality at 300 ppm [9] | mortality at 300 ppm [11]

CCS(CC)=Nc1c(-c2cc(Cl)cc(C(F)(F)F)c2)c(C(F)(F)F)nn1-c1ncccn1 [I.1-4]
≥ 75%: mortality at 300 ppm [1] | mortality at 2500 ppm [2] | mortality at 300 ppm [3] | mortality at 2500 ppm [4] | mortality at 300 ppm [5] | mortality at 2500 ppm [6] | mortality at 2500 ppm [7] | mortality at 300 ppm [9] | mortality at 300 ppm [10] | mortality at 300 ppm [11] | mortality at 500 ppm [12]

FC(F)(F)c1cc(Cl)cc(-c2c(C(F)(F)F)nn(-c3ncccn3)c2/N=N/Nc2ccccc2)c1 [I.1-10, N-[(E)-[4-[3-chloro-5-(trifluoromethyl)phenyl]-2-pyrimidin-2-yl-5-(trifluoromethyl)pyrazol-3-yl]azo]aniline]
≥ 75%: mortality at 300 ppm [1] | mortality at 2500 ppm [2] | mortality at 2500 ppm [4] | mortality at 2500 ppm [6] | mortality at 2500 ppm [7] | mortality at 300 ppm [13] | mortality at 300 ppm [9] | mortality at 300 ppm [11]

CC(C)S(=Nc1c(-c2cc(Cl)cc(C(F)(F)F)c2)c(C(F)(F)F)nn1-c1ncccn1)C(C)C [I.1-5]
≥ 75%: mortality at 300 ppm [1] | mortality at 2500 ppm [2] | mortality at 300 ppm [3] | mortality at 2500 ppm [4] | mortality at 300 ppm [5] | mortality at 2500 ppm [6] | mortality at 2500 ppm [7] | mortality at 300 ppm [13] | mortality at 500 ppm [8] | mortality at 300 ppm [9] | mortality at 300 ppm [10] | mortality at 300 ppm [11] | mortality at 300 ppm [14] | mortality at 500 ppm [12]

CC(C)S(=Nc1c(-c2cc(Cl)c3c(c2)OCO3)c(C(F)(F)F)nn1-c1ncccn1)C(C)C [I.1-2, [4-(7-Chloro-1,3-benzodioxol-5-yl)-2-pyrimidin-2-yl-5-(trifluoromethyl)pyrazol-3-yl]imino-diisopropyl-λ^4-sulfane]
≥ 75%: mortality at 300 ppm [1] | mortality at 2500 ppm [2] | mortality at 300 ppm [3] | mortality at 2500 ppm [4] | mortality at 300 ppm [5] | mortality at 2500 ppm [6] | mortality at 2500 ppm [7] | mortality at 500 ppm [8] | mortality at 300 ppm [9] | mortality at 300 ppm [11] | mortality at 500 ppm [12]
